Tests used:
[1] = biological target: T1, Prostaglandin G/H synthase 2 (Homo sapiens, UniProt P35354); assay: Inhibitory concentration in DMSO with purified human Prostaglandin G/H synthase 2 (COX-2)
T1 sequence (P35354 whole entry): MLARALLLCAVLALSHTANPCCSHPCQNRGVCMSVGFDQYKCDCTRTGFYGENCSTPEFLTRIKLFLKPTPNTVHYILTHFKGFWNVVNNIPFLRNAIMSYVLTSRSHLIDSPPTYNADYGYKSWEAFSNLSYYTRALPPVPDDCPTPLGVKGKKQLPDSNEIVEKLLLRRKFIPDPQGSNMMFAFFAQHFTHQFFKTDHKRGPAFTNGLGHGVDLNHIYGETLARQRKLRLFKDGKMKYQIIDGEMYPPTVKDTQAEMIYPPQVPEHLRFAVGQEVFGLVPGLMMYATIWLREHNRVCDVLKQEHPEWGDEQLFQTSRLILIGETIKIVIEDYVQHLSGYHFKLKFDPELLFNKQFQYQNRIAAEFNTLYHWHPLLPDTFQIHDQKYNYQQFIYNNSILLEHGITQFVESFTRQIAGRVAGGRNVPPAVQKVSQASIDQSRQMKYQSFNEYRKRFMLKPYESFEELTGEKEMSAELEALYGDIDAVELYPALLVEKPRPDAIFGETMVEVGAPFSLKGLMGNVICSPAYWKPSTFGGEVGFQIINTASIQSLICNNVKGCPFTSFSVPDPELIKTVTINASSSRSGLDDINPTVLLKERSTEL

[2] = biological target: T2, Prostaglandin G/H synthase 1 (Ovis aries, UniProt P05979); assay: Inhibitory concentration in DMSO with purified ovine Prostaglandin G/H synthase 1 (COX-1).
T2 sequence (P05979 whole entry): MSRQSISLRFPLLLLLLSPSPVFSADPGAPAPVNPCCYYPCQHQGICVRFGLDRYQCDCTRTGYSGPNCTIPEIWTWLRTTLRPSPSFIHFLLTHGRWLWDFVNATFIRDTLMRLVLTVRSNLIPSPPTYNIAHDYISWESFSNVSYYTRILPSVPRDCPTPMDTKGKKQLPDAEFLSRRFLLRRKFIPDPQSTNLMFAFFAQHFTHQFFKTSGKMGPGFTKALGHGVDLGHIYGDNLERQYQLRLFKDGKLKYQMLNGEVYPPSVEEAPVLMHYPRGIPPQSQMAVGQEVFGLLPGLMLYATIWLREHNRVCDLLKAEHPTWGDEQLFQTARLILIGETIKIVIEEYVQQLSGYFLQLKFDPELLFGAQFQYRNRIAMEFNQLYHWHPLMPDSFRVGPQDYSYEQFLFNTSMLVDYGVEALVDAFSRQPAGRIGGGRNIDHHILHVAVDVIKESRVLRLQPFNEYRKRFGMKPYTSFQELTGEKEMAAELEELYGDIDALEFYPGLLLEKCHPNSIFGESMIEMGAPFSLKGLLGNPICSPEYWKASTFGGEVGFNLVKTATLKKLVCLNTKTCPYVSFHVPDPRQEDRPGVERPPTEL

SMILES	IC50 [1]	IC50 [2]
CC#CCSc1ccccc1OC(C)=O	–	35 µM
CC(=O)Oc1ccccc1SCCCCC#N	> 50 µM	> 50 µM
CC(=O)Oc1ccccc1SCCCCCCBr	12 µM	25 µM
CCCCSc1ccccc1OC(C)=O	–	40 µM
CCCCCCCCSc1ccccc1OC(C)=O	> 40 µM	> 40 µM
CC(=O)Oc1ccccc1SC1CCCCCC1	> 40 µM	> 40 µM
CC(=O)Oc1ccccc1SCCc1ccccc1	–	> 150 µM
CCCCCCCN(C)c1ccccc1OC(C)=O	> 40 µM	> 40 µM
CC(=O)Oc1ccccc1SCCCCCCI	10 µM	70 µM
CC(=O)Oc1ccccc1SCc1ccccc1	–	> 400 µM
CCCCC#CCSc1ccccc1OC(=O)CC	> 40 µM	> 40 µM
CCCCCCC[S+]([O-])c1ccccc1OC(C)=O (configuration not stated)	> 40 µM	> 40 µM
CCCCCCCCc1ccccc1OC(C)=O	> 40 µM	> 40 µM
CCCOCCCSc1ccccc1OC(C)=O	> 50 µM	> 50 µM
CC(=O)OCCCCCSc1ccccc1OC(C)=O	50 µM	50 µM
CCCCCCC[Se]c1ccccc1OC(C)=O	12 µM	12 µM
CC(=O)Oc1ccccc1SCCCCC(=O)O	> 50 µM	> 50 µM
CCCCC#CCSc1ccccc1OC(C)=O	–	17 µM
CCCC/C=C/CSc1ccccc1OC(C)=O	–	22 µM
CC(=O)Oc1ccccc1SCCCCCBr	9.5 µM	34 µM

Continued, values first:

IC50 [1]	IC50 [2]	SMILES
> 40 µM	> 40 µM	CCCCC#CCOc1ccccc1OC(C)=O
> 40 µM	> 40 µM	CCCCCCCCCSc1ccccc1OC(C)=O
7 µM	15 µM	CCCCC#CC(C)Sc1ccccc1OC(C)=O (configuration not stated)
> 1000 µM	> 1000 µM	CCC(=O)Oc1ccccc1SC
50 µM	50 µM	CC(=O)Oc1ccccc1SCCCCCC(=O)O
> 1000 µM	> 1000 µM	CC(=O)Oc1ccccc1SCCCc1ccccc1
> 50 µM	> 50 µM	CC(=O)Oc1ccccc1SCCCCCO
–	> 5000 µM	CSc1ccccc1OC(C)=O
> 1000 µM	> 1000 µM	CC(=O)Oc1ccccc1SCCCOc1ccccc1
> 40 µM	> 40 µM	CCCCCCCOc1ccccc1OC(C)=O
> 40 µM	> 40 µM	CC(=O)Oc1ccccc1SC1CCCCC1
> 40 µM	> 40 µM	CCCCCCCS(=O)(=O)c1ccccc1OC(C)=O
